Among the data in patent publication US20230271956A1, “AMIDE DERIVATIVES” (Merck Patent GmbH, priority 2020, published 2023) are IC50 values, retold here.

pIC50: −log10 of the molar value.

In the assay the target is T1, human rec ACSS2 (Homo sapiens, UniProt Q9NR19).
T1 construct: myc (C); purchased Origene
T1 sequence (Q9NR19 whole entry): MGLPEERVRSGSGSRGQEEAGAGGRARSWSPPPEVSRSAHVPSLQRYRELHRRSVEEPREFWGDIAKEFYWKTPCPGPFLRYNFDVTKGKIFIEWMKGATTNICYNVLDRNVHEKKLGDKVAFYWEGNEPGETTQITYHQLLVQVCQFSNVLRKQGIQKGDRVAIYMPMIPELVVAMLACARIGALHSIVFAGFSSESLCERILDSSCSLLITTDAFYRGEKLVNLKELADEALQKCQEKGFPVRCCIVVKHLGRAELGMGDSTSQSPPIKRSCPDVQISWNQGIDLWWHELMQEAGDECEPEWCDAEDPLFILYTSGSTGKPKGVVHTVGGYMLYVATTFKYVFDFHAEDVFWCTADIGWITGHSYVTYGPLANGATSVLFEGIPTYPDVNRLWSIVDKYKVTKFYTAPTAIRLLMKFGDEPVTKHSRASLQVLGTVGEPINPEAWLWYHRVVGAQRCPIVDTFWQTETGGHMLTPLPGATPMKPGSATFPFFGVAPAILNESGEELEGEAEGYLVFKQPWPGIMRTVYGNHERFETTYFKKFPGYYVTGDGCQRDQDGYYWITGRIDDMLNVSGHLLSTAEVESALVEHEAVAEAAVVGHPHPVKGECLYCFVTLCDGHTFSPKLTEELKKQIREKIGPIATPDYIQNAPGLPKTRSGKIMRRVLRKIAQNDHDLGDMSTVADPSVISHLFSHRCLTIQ
The assay is described as follows: Biochemical activity ACSS2 assay (AMP-Glo). The note with it: human recombinant ACSS2, AMP-Glo, 180 min at 37° C. In a few lines: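 C-terminal myc-tagged human recombinant ACSS2 (1 nM) reacted with 100 µM ATP, 100 µM CoA and 500 µM acetate (final) in pH 7.5 Hepes buffer for 180 min at 37° C, compound in 10 concentrations from 30 µM. Released AMP detected by AMP-Glo luminescence. IC50 normalised to inhibitor-free reaction and 5 µM reference inhibitor.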
In the case of `CCn1cnc(NC(=O)c2cc3c(nc2OC)nc(C(O)(c2ccccc2)c2ccccc2)n3CC)n1` [Compound 103, 1-ethyl-N-(1-ethyl-1H-1,2,4-triazol-3-yl)-2-(hydroxydiphenylmethyl)-5-methoxy-1H-imidazo[4,5-b]pyridine-6-carboxamide], the negative-log IC50 (pIC50) (as a rule, −log10 of the IC50, conventionally taken in molar units) is 8.00 to 9.00.

As to `CCn1cnc(NC(=O)c2cc3c(nc2F)nc(C(O)(c2ccccc2F)c2ccccc2F)n3CC)n1` [Compound 91, 2-[bis(2-fluorophenyl)(hydroxy)methyl]-1-ethyl-N-(1-ethyl-1H-1,2,4-triazol-3-yl)-5-fluoro-1H-imidazo[4,5-b]pyridine-6-carboxamide], the pIC50 is 8.00 to 9.00. The same measure for `CCc1c(C(O)(c2ccccc2F)c2ccccc2F)nn2cc(C)c(C(=O)Nc3ncn(CC)n3)cc12` [Compound 3, 2-[Bis-(2-fluoro-phenyl)-hydroxy-methyl]-3-ethyl-6-methyl-pyrazolo[1,5-a]pyridine-5-carboxylic acid (1-ethyl-1H-[1,2,4]triazol-3-yl)-amide]: 8.00 to 9.00; for `CCc1c(C(O)(c2ccccc2)c2ccccc2)nn2ccc(C(=O)Nc3cnn(CC)c3)cc12` [Compound 10, 3-Ethyl-2-(hydroxy-diphenyl-methyl)-pyrazolo[1,5-a]pyridine-5-carboxylic acid (1-ethyl-1H-pyrazol-4-yl)-amide]: 7.00 to 8.00; for `CCc1c(C(O)(c2ccccc2F)c2ccccc2F)nc2cc(OC)c(C(=O)Nc3cnn(CC)c3)cn12` [Compound 30, 2-[Bis-(2-fluoro-phenyl)-hydroxy-methyl]-3-ethyl-7-methoxy-imidazo[1,2-a]pyridine-6-carboxylic acid (1-ethyl-1H-pyrazol-4-yl)-amide]: 8.00 to 9.00.

As for `CCn1cc(NC(=O)c2cc3c(nc2Cl)nc(C(O)(c2ccccc2)c2ccccc2)n3CC)cn1` [Compound 98, 5-chloro-1-ethyl-N-(1-ethyl-1H-pyrazol-4-yl)-2-(hydroxydiphenylmethyl)-1H-imidazo[4,5-b]pyridine-6-carboxamide], the pIC50 is 8.00 to 9.00. `CCc1c(C(O)(c2ccccc2)c2ccccc2)nc2ccc(C(=O)Nc3cnn(CC)c3)cn12` [Compound 13, 3-Ethyl-2-(hydroxy-diphenyl-methyl)-imidazo[1,2-a]pyridine-6-carboxylic acid (1-ethyl-1H-pyrazol-4-yl)-amide]: the negative logarithm of the IC50 (pIC50) was 7.00 to 8.00. The value for `CCc1c(C(O)(c2ccccc2)c2ccccc2)nc2cc(OC)c(C(=O)Nc3cnn(CC)c3)cn12` [Compound 23, 3-Ethyl-2-(hydroxy-diphenyl-methyl)-7-methoxy-imidazo[1,2-a]pyridine-6-carboxylic acid (1-ethyl-1H-pyrazol-4-yl)-amide] was 8.00 to 9.00; that for `CCc1c(C(O)(c2ccccc2F)c2ccccc2F)nc2cc(OC)c(C(=O)Nc3ncn(CC)n3)cn12` [Compound 28, 2-[Bis-(2-fluoro-phenyl)-hydroxy-methyl]-3-ethyl-7-methoxy-imidazo[1,2-a]pyridine-6-carboxylic acid (1-ethyl-1H-[1,2,4]triazol-3-yl)-amide] was 8.00 to 9.00. The same measure for `CCn1c(C(O)(c2ccccc2)c2ccccc2)nc2ccc(C(=O)NC[C@@H](C)O)cc21` [Reference Compound, 3-Ethyl-2-[hydroxy(diphenyl)methyl]-N-[(2R)-2-hydroxypropyl]benzimidazole-5-carboxamide, reference compound]: 5.00 to 7.00; for `CCn1cc(NC(=O)c2cc3c(nc2F)nc(C(O)(c2ccccc2F)c2ccccc2F)n3CC)cn1` [Compound 90, 2-[bis(2-fluorophenyl)(hydroxy)methyl]-1-ethyl-N-(1-ethyl-1H-pyrazol-4-yl)-5-fluoro-1H-imidazo[4,5-b]pyridine-6-carboxamide]: 8.00 to 9.00.

In the case of `CCn1cnc(NC(=O)c2cc3c(nc2OC)nc(C(O)(c2ccccc2)c2ccccn2)n3CC)n1` (single isomer, unassigned) [Compound 53, 1-ethyl-N-(1-ethyl-1H-1,2,4-triazol-3-yl)-2-[hydroxy(phenyl)(pyridin-2-yl)methyl]-5-methoxy-1H-imidazo[4,5-b]pyridine-6-carboxamide], the pIC50 is 8.00 to 9.00.

`CCn1cnc(NC(=O)c2cc3c(nc2OC)nc(C(O)(c2ccccc2F)c2ccccc2F)n3CC)n1` [Compound 102, 2-[bis(2-fluorophenyl)(hydroxy)methyl]-1-ethyl-N-(1-ethyl-1H-1,2,4-triazol-3-yl)-5-methoxy-1H-imidazo[4,5-b]pyridine-6-carboxamide]: the pIC50 is 9.00 to 11.00.

Turning to `CCc1c(C(O)(c2ccccc2F)c2ccccc2F)nn2cc(OC)c(C(=O)Nc3cnn(CC)c3)cc12` [Compound 4, 2-[Bis-(2-fluoro-phenyl)-hydroxy-methyl]-3-ethyl-6-methoxy-pyrazolo[1,5-a]pyridine-5-carboxylic acid (1-ethyl-1H-pyrazol-4-yl)-amide], the negative-log IC50 (pIC50) is 7.00 to 8.00. The same measure for `CCc1c(C(O)(c2ccccc2)c2ccccc2)nc2cc(F)c(C(=O)Nc3ncn(CC)n3)cn12` [Compound 20, 3-Ethyl-7-fluoro-2-(hydroxy-diphenylmethyl)-imidazo[1,2-a]pyridine-6-carboxylic acid (1-ethyl-1H-[1,2,4]triazol-3-yl)-amide]: 8.00 to 9.00; for `CCc1c(C(O)(c2ccccc2)c2ccccc2)nc2ccc(C(=O)Nc3ncn(CC)n3)cn12` [Compound 25, 3-Ethyl-2-(hydroxy-diphenyl-methyl)-imidazo[1,2-a]pyridine-6-carboxylic acid (1-ethyl-1H-[1,2,4]triazol-3-yl)-amide]: 8.00 to 9.00. The value for `CCc1c(C(O)(c2ccccc2F)c2ccccc2F)nn2ccc(C(=O)Nc3ncn(CC)n3)cc12` [Compound 5, 2-[Bis-(2-fluoro-phenyl)-hydroxy-methyl]-3-ethyl-pyrazolo[1,5-a]pyridine-5-carboxylic acid (1-ethyl-1H-[1,2,4]triazol-3-yl)-amide] was 8.00 to 9.00; that for `CCc1c(C(O)(c2ccccc2)c2ccccc2)nn2ccc(C(=O)Nc3ncn(CC)n3)cc12` [Compound 9, 3-Ethyl-2-(hydroxy-diphenyl-methyl)-pyrazolo[1,5-a]pyridine-5-carboxylic acid (1-ethyl-1H-[1,2,4]triazol-3-yl)-amide] was 8.00 to 9.00; that for `CCc1c(C(O)(c2ccccc2)c2ccccc2)nn2cc(Cl)c(C(=O)Nc3cnn(CC)c3)cc12` [Compound 6, 6-Chloro-3-ethyl-2-(hydroxy-diphenylmethyl)-pyrazolo[1,5-a]pyridine-5-carboxylic acid (1-ethyl-1H-pyrazol-4-yl)-amide] was 7.00 to 8.00.

For `CCc1c(C(O)(c2ccccc2)c2ccccc2)nn2cc(OC)c(C(=O)Nc3ncn(CC)n3)cc12` [Compound 11, 3-Ethyl-2-(hydroxy-diphenyl-methyl)-6-methoxy-pyrazolo[1,5-a]pyridine-5-carboxylic acid (1-ethyl-1H-[1,2,4]triazol-3-yl)-amide], the pIC50 is 8.00 to 9.00. In the case of `CCn1cnc(NC(=O)c2cc3c(nc2OC)nc(C(O)(c2ccccc2F)c2ccc(OC(F)F)cc2F)n3CC)n1` (racemic) [Compound 94, 2-{[4-(difluoromethoxy)-2-fluorophenyl](2-fluorophenyl)hydroxymethyl}-1-ethyl-N-(1-ethyl-1H-1,2,4-triazol-3-yl)-5-methoxy-1H-imidazo[4,5-b]pyridine-6-carboxamide], the pIC50 was 8.00 to 9.00. The same measure for `CCn1cnc(NC(=O)c2cc3c(nc2F)nc(C(O)(c2ccccc2)c2ccccc2)n3CC)n1` [Compound 89, 1-ethyl-N-(1-ethyl-1H-1,2,4-triazol-3-yl)-5-fluoro-2-(hydroxydiphenylmethyl)-1H-imidazo[4,5-b]pyridine-6-carboxamide]: 8.00 to 9.00.

Consider `CCc1c(C(O)(c2ccccc2)c2ccccc2)nn2cc(Cl)c(C(=O)Nc3ncn(CC)n3)cc12` [Compound 1, 6-Chloro-3-ethyl-2-(hydroxy-diphenylmethyl)-pyrazolo[1,5-a]pyridine-5-carboxylic acid (1-ethyl-1H-[1,2,4]triazol-3-yl)-amide], for which the pIC50 is 9.00 to 11.00. The same measure for `CCc1c(C(O)(c2ccccc2)c2ccccc2)nc2cc(Cl)c(C(=O)Nc3cnn(CC)c3)cn12` [Compound 19, 7-Chloro-3-ethyl-2-(hydroxy-diphenylmethyl)-imidazo[1,2-a]pyridine-6-carboxylic acid (1-ethyl-1H-pyrazol-4-yl)-amide]: 7.00 to 8.00. The value for `CCc1c(C(O)(c2ccccc2)c2ccccc2)nc2cc(Cl)c(C(=O)Nc3ncn(CC)n3)cn12` [Compound 14, 7-Chloro-3-ethyl-2-(hydroxy-diphenylmethyl)-imidazo[1,2-a]pyridine-6-carboxylic acid (1-ethyl-1H-[1,2,4]triazol-3-yl)-amide] was 8.00 to 9.00. `CCc1c(C(O)(c2ccccc2F)c2ccccc2F)nn2cc(Cl)c(C(=O)Nc3ncn(CC)n3)cc12` [Compound 2, 2-[Bis-(2-fluoro-phenyl)-hydroxy-methyl]-6-chloro-3-ethyl-pyrazolo[1,5-a]pyridine-5-carboxylic acid (1-ethyl-1H-[1,2,4]triazol-3-yl)-amide]: the pIC50 was 8.00 to 9.00. The same measure for `CCc1c(C(O)(c2ccccc2)c2ccccn2)nc2cc(OC)c(C(=O)Nc3ncn(CC)n3)cn12` (racemic) [Compound 16, 3-Ethyl-2-(hydroxy-phenyl-pyridin-2-yl-methyl)-7-methoxy-imidazo[1,2-a]pyridine-6-carboxylic acid (1-ethyl-1H-[1,2,4]triazol-3-yl)-amide]: 7.00 to 8.00; for `CCc1c(C(O)(c2ccccc2F)c2ccccc2F)nc2cc(Cl)c(C(=O)Nc3ncn(CC)n3)cn12` [Compound 31, 2-[Bis-(2-fluoro-phenyl)-hydroxy-methyl]-7-chloro-3-ethyl-imidazo[1,2-a]pyridine-6-carboxylic acid (1-ethyl-1H-[1,2,4]triazol-3-yl)-amide]: 8.00 to 9.00.

As for `CCc1c(C(O)(c2ccccc2)c2ccccc2)nn2cc(OC)c(C(=O)Nc3cnn(CC)c3)cc12` [Compound 8, 3-Ethyl-2-(hydroxy-diphenyl-methyl)-6-methoxy-pyrazolo[1,5-a]pyridine-5-carboxylic acid (1-ethyl-1H-pyrazol-4-yl)-amide], the pIC50 was 7.00 to 8.00.
